Measurements: ChEMBL document CHEMBL5046231, “Modulation of Naturally Occurring Linear Dipeptide Chirality to Reduce the Affinity for Oligopeptide Transporter 1 and Increase Intestinal Stability for an Enhanced Colon-Targeting Effect in the Treatment of Inflammatory Bowel Disease: An Application of trans-4-l-Hydroxyprolyl-l-serine” (J Med Chem, 2022)
The source made the active and inactive calls. The calls are words filed in the database; no cut-off is given here.

Key:
[1] = Chemical stability in acetate buffer at pH 4.5 assessed as half life measured up to 12 hrs by HPLC analysis; assay type: physicochemical
Mus musculus [2] = assay: Anti-colitis activity against DSS-induced colitis in C57BL/6 mouse model assessed as assessed as recovery of body weight at 25 mg/kg, po administered via gavage twice daily for 10 days; assay type: functional, organism-based; conditions: time 10.0 day
[3] = AUC (0 to 6 hrs) in DSS-induced colitis C57BL/6 mouse model at 25 mg/kg, po measured up to 6 hrs by UPLC-MS/MS analysis; assay type: ADME, organism-based; set-up: route oral, dose 25 mg/kg, time <=6; conditions: in vivo
[4] = Metabolic stability in healthy C57BL/6 mouse jejunum assessed as half life measured up to 12 hrs by HPLC analysis; assay type: ADME, tissue-based
Mus musculus [5] = assay: Anti-colitis activity against DSS-induced C57BL/6 mouse model of colitis assessed as fold change in body weight recovery at 25 to 100 mg/kg, po administered via gavage twice a day for 10 days relative to SASP; assay type: functional; conditions: dose 25-100 mg/kg; time 10 day
Mus musculus [6] = assay: Anti-colitis activity against DSS-induced C57BL/6 mouse model of colitis assessed as restoration of intestinal barrier function by measuring fold increase in FITC-dextran level in plasma at 25 mg/kg, po administered via gavage twice a day for 10 days followed by FITC-dextran addition and measured after 4 hrs; assay type: functional; conditions: time 10 day
[7] = Toxicity in healthy C57BL/6 mouse assessed as change in body weight at 100 mg/kg, po administered for 10 days; assay type: organism-based; conditions: in vivo, 240 h, time 10 day
Mus musculus [8] = assay: Antiinflammatory activity in DSS-induced C57BL/6 mouse model of colitis assessed as increase in IL-10 level 25 to 100 mg/kg, po administered via gavage twice a day for 10 days; assay type: functional, organism-based; conditions: dose 25-100 mg/kg, time 10.0 day
[9] = Chemical stability in phosphate buffer at pH 7.2 assessed as half life measured up to 12 hrs by HPLC analysis; assay type: physicochemical
[10] = Metabolic stability in DSS-induced C57BL/6 mouse colon assessed as half life measured up to 12 hrs by HPLC analysis; assay type: ADME, tissue-based
[11] = Metabolic stability in DSS-induced C57BL/6 mouse jejunum assessed as half life measured up to 12 hrs by HPLC analysis; assay type: ADME, tissue-based
Mus musculus [12] = assay: Anti-colitis activity against DSS-induced colitis in C57BL/6 mouse model assessed as decrease in MPO level in colon at 50 mg/kg, po administered via gavage twice a day for 10 days; assay type: functional; set-up: scale not given: the % may be the effect or the level left; conditions: time 10 day
[13] = Toxicity in healthy C57BL/6 mouse assessed as histological changes in lung at 100 mg/kg, po administered for 10 days by H and E staining based assay; assay type: organism-based; conditions: in vivo, 240 h, time 10 day

half-life [1]: > 12 h
AUC [3]: 54.65 microM/L.hr
half-life [4]: > 12 h
half-life [9]: > 12 h
half-life [10]: > 12 h
half-life [11]: > 12 h
SMILES: O=C(O)[C@@H](CO)NC(=O)[C@H]1C[C@@H](O)CN1
Activity (Mus musculus [2]): Active
fold change (FC) (Mus musculus [5]): 2.1
fold change (FC) (Mus musculus [6]): 10.7
Activity [7]: Non-Toxic
Activity (Mus musculus [8]): Active
Activity (Mus musculus [12]): 47.5%
Activity [13]: Non-Toxic
